Test: logP determination by HPLC on reverse-phase column (C 18), EEC directive 79/831 Annex V.A8
Assay type: physicochemical
Method: In the acidic range, the determination is carried out at pH 2.3 using the mobile phases 0.1% aqueous phosphoric acid and acetonitrile; linear gradient from 10% acetonitrile to 90% acetonitrile.
In the neutral range, the determination is carried out at pH 7.5 using the mobile phases 0.01 molar aqueous phosphate buffer solution and acetonitrile; linear gradient from 10% acetonitrile to 90% acetonitrile.

[1] = reverse-phase HPLC column (C 18), pH 2.3, acidic range, pH 2.3; 0.1% aqueous phosphoric acid/acetonitrile gradient; 43° C.; values marked a)
[2] = reverse-phase HPLC column (C 18), pH 7.5, neutral range, pH 7.5; 0.01 molar aqueous phosphate buffer/acetonitrile gradient; 43° C.; values marked b)

O=C1CCC(c2ccc(F)c(F)c2)N1 (stereo not drawn) [Example V-13]
chromatographic logP [1]: 1.43

CC(C)c1ccc(C2CCC(c3ccccc3F)=N2)cc1 (stereo not drawn) [Example 22]
chromatographic logP [1]: 2.09

Fc1ccccc1C1=NC(c2ccccc2)CC1 (stereo not drawn) [Example 76]
chromatographic logP [1]: 1.16
chromatographic logP [2]: 3.45

Fc1ccc(C2CCC(c3ccccc3F)=N2)cc1F (stereo not drawn) [Example 63]
chromatographic logP [1]: 1.74
chromatographic logP [2]: 3.74

CC(C)(C)Sc1ccc(C2CCC(=O)N2)cc1 (stereo not drawn) [Example V-26]
chromatographic logP [1]: 2.69

Fc1cc(F)c(C2=NC(c3ccc(-c4ccc(SC(F)(F)F)cc4)cc3)CC2)c(F)c1 (stereo not drawn) [Example 114]
chromatographic logP [1]: 5.05

CC(C)(C)OC(=O)N1C(=O)CCC1c1ccc(Cl)cc1 (stereo not drawn) [III-13]
chromatographic logP [1]: 2.93

Fc1ccc(C2CCC(c3ccccc3)=N2)cc1 (stereo not drawn) [Example 32]
chromatographic logP [1]: 1.12
chromatographic logP [2]: 3.34

CC(C)c1ccc(C2CCC(=O)N2C(=O)OC(C)(C)C)cc1 (stereo not drawn) [III-5]
chromatographic logP [1]: 3.65

Fc1ccccc1C1=NC(c2ccc(Br)cc2)CC1 (stereo not drawn) [Example 97]
chromatographic logP [1]: 1.83

Clc1cccc(C2=NC(c3ccccc3)CC2)c1Cl (stereo not drawn) [Example 69]
chromatographic logP [2]: 4.07

CC(C)(C)OC(=O)N1C(=O)CCC1c1ccc(-c2ccc(Br)cc2)cc1 (stereo not drawn) [III-27]
chromatographic logP [1]: 4.26

Fc1ccc(C2CCC(c3ccc(C(F)(F)F)cc3)=N2)cc1 (stereo not drawn) [Example 64]
chromatographic logP [1]: 2.73
chromatographic logP [2]: 4.2

O=C1CCC(c2ccc(F)cc2)N1 (stereo not drawn) [Example V-17]
chromatographic logP [1]: 1.32

Fc1ccc(C2CCC(c3c(Cl)cccc3Cl)=N2)cc1 (stereo not drawn) [Example 37]
chromatographic logP [1]: 3.78
chromatographic logP [2]: 3.95

CSc1ccc(C2CCC(c3ccccc3Br)=N2)cc1 (stereo not drawn) [Example 58]
chromatographic logP [1]: 2.5
chromatographic logP [2]: 4.03

O=C1CCC(c2ccc(-c3ccc(OCc4ccc(OC(F)(F)F)cc4)cc3)cc2)N1 (stereo not drawn) [Example V-23]
chromatographic logP [1]: 3.83

CSc1ccc(C2CCC(c3ccccc3Cl)=N2)cc1 (stereo not drawn) [Example 55]
chromatographic logP [1]: 2.19
chromatographic logP [2]: 4

Cc1ccc(C2CCC(=O)N2C(=O)OC(C)(C)C)cc1Cl (stereo not drawn) [III-14]
chromatographic logP [1]: 3.3

CC(C)c1ccc(C2CCC(c3ccccc3Cl)=N2)cc1 (stereo not drawn) [Example 21]
chromatographic logP [1]: 2.74

Brc1ccc(C2CCC(c3ccccc3Br)=N2)cc1 (stereo not drawn) [Example 98]
chromatographic logP [1]: 3.11

CC(C)Sc1ccc(C2CCC(c3c(F)cccc3F)=N2)cc1 (stereo not drawn) [Example 36]
chromatographic logP [1]: 2.18

FC(F)(F)Oc1ccc(-c2ccc(C3CCC(c4ccccc4OC(F)(F)F)=N3)cc2)cc1 (stereo not drawn) [Example 7]
chromatographic logP [1]: 4.83

O=C1CCC(c2ccc(-c3ccc(Br)cc3)cc2)N1 (stereo not drawn) [Example V-28]
chromatographic logP [1]: 2.76

CC(C)c1ccc(C2CCC(c3ccccc3Br)=N2)cc1 (stereo not drawn) [Example 23]
chromatographic logP [1]: 3.06

COc1ccc(C2CCC(c3ccccc3Cl)=N2)cc1 (stereo not drawn) [Example 86]
chromatographic logP [1]: 1.66
chromatographic logP [2]: 3.47

CC(C)(C)OC(=O)N1C(=O)C(C(=O)c2ccc(Cl)cc2)CC1c1ccc(F)cc1 (stereo not drawn) [II-2]
chromatographic logP [1]: 4.13

CC(C)(C)OC(=O)N1C(=O)CCC1c1ccc(C(C)(C)C)cc1 (stereo not drawn) [III-4]
chromatographic logP [1]: 3.92

O=C1CCC(c2ccc(-c3ccc(OC(F)(F)F)cc3)cc2)N1 (stereo not drawn) [Example V-27]
chromatographic logP [1]: 2.96

Fc1cccc(F)c1C1=NC(c2ccc(-c3ccc(Br)cc3)cc2)CC1 (stereo not drawn) [Example 113]
chromatographic logP [1]: 3.98

Fc1cccc(F)c1C1=NC(c2ccc(C3CCCCC3)cc2)CC1 (stereo not drawn) [Example 78]
chromatographic logP [1]: 3.84
chromatographic logP [2]: 5.56

CCOc1cc(C(C)(C)C)ccc1C1CCC(c2ccccc2Cl)=N1 (stereo not drawn) [Example 52]
chromatographic logP [1]: 3.01
chromatographic logP [2]: 5.78

Cc1ccc(C2CCC(c3ccccc3Cl)=N2)cc1 (stereo not drawn) [Example 74]
chromatographic logP [1]: 1.96
chromatographic logP [2]: 4.04

Oc1ccc(C2CCC(c3ccccc3F)=N2)cc1 (stereo not drawn) [Example 104]
chromatographic logP [1]: 0.59

CC(C)Oc1cc(-c2ccccc2)ccc1C1CCC(c2ccccc2Cl)=N1 (stereo not drawn) [Example 103]
chromatographic logP [1]: 3.26

Cc1ccccc1C1=NC(c2ccc(-c3ccc(SC(F)(F)F)cc3)cc2)CC1 (stereo not drawn) [Example 18]
chromatographic logP [1]: 3.25
chromatographic logP [2]: 6.1

CCOC(=O)Oc1ccc(-c2ccc(C3CCC(=O)N3)cc2)cc1 (stereo not drawn) [Example V-20]
chromatographic logP [1]: 2.39

CC(C)(C)c1ccc(C2CCC(c3ccccc3F)=N2)cc1 (stereo not drawn) [Example 24]
chromatographic logP [1]: 2.33
chromatographic logP [2]: 5.06

Clc1ccc(C2=NC(c3ccccc3)CC2)cc1 (stereo not drawn) [Example 90]
chromatographic logP [1]: 1.43

COc1ccc(C2CCC(=O)N2)cc1F (stereo not drawn) [Example V-9]
chromatographic logP [1]: 1.29

Brc1ccccc1C1=NC(c2ccc(CCc3ccccc3)cc2)CC1 (stereo not drawn) [Example 88]
chromatographic logP [1]: 3.77
chromatographic logP [2]: 5.35

CC(C)(C)OC(=O)N1C(=O)C(C(=O)c2ccccc2C(F)(F)F)CC1c1ccc(Br)cc1 (stereo not drawn) [II-3]
chromatographic logP [2]: 3.03

Cc1ccccc1C(=O)C1CC(c2ccc(C(C)C)cc2)N(C(=O)OC(C)(C)C)C1=O (stereo not drawn) [II-5]
chromatographic logP [2]: 5.05

CC(C)Oc1ccc(-c2ccc(C3CCC(=O)N3)cc2)cc1 (stereo not drawn) [Example V-21]
chromatographic logP [1]: 2.77

O=C1CCC(c2ccccc2)N1 (stereo not drawn) [Example V-15]
chromatographic logP [1]: 1.21

COc1ccc(C2CCC(c3ccccc3F)=N2)cc1 (stereo not drawn) [Example 87]
chromatographic logP [1]: 1.21
chromatographic logP [2]: 3.32

Cc1cc(Cl)ccc1C1CCC(c2cc(Cl)ccc2Cl)=N1 (stereo not drawn) [Example 61]
chromatographic logP [1]: 5.03
chromatographic logP [2]: 5.33

FC(F)(F)Oc1ccc(C2=NC(c3ccccc3)CC2)cc1 (stereo not drawn) [Example 66]
chromatographic logP [1]: 2.02
chromatographic logP [2]: 4.26

Cc1ccc(C2CCC(=O)N2C(=O)OC(C)(C)C)cc1 (stereo not drawn) [III-20]
chromatographic logP [1]: 2.9

Cc1cc(-c2ccc(C3CCC(c4c(F)cccc4F)=N3)cc2)ccc1OC(F)(F)F (stereo not drawn) [Example 112]
chromatographic logP [1]: 4.57

Cc1ccccc1C1=NC(c2ccc(C(C)C)cc2)CC1 (stereo not drawn) [Example 25]
chromatographic logP [1]: 2.11
chromatographic logP [2]: 5.01

CSc1ccc(C2CCC(=O)N2C(=O)OC(C)(C)C)cc1 (stereo not drawn) [III-15]
chromatographic logP [1]: 2.84
chromatographic logP [2]: 2.83

Cc1ccccc1C1=NC(c2ccc(F)cc2)CC1 (stereo not drawn) [Example 31]
chromatographic logP [1]: 1.41

Cc1ccc(C2CCC(=O)N2)c(Cl)c1 (stereo not drawn) [Example V-7]
chromatographic logP [1]: 1.92

O=C1CCC(c2ccc(OC(F)(F)F)cc2)N1 (stereo not drawn) [Example V-1, 5-[4-(trifluoromethoxy)phenyl]-2-pyrrolidinone]
chromatographic logP [1]: 2

CC(C)Oc1ccc(-c2ccc(C3CCC(=O)N3C(=O)OC(C)(C)C)cc2)cc1 (stereo not drawn) [III-23]
chromatographic logP [1]: 4.17

COc1ccccc1C1=NC(c2ccc(-c3ccc(OC(F)(F)F)cc3)cc2)CC1 (stereo not drawn) [Example 5]
chromatographic logP [1]: 2.55
chromatographic logP [2]: 5.23

Cc1ccc(C2CCC(c3ccccc3Cl)=N2)c(C)c1 (stereo not drawn) [Example 71]
chromatographic logP [1]: 2.82
chromatographic logP [2]: 4.45

CC(C)(C)OC(=O)N1C(=O)CCC1c1ccc(-c2ccc(OCc3ccc(Cl)cc3)cc2)cc1 (stereo not drawn) [III-24]
chromatographic logP [1]: 4.93

CC(C)(C)OC(=O)N1C(=O)CCC1c1ccc(OC(F)(F)F)cc1 (stereo not drawn) [III-1, tert-butyl 2-oxo-5-[4-(trifluoromethoxy)phenyl]-1-pyrrolidinecarboxylate]
chromatographic logP [1]: 3.28

Cc1cc(Cl)ccc1C1CCC(c2ccccc2F)=N1 (stereo not drawn) [Example 39]
chromatographic logP [1]: 2.09
chromatographic logP [2]: 4.51

Cc1ccccc1C1=NC(c2ccc(Cl)cc2C)CC1 (stereo not drawn) [Example 30]
chromatographic logP [1]: 2.06
chromatographic logP [2]: 4.79

FC(F)(F)Sc1ccc(-c2ccc(C3CCC(c4ccc(Cl)cc4Cl)=N3)cc2)cc1 (stereo not drawn) [Example 19]
chromatographic logP [1]: 6.19

O=C1CCC(c2ccc(SC(F)(F)F)cc2)N1 (stereo not drawn) [Example V-25]
chromatographic logP [1]: 1.59

FC(F)(F)Oc1ccc(-c2ccc(C3CCC(c4ccccc4Br)=N3)cc2)cc1 (stereo not drawn) [Example 102]
chromatographic logP [1]: 4.52
chromatographic logP [2]: 5.56

CC(C)(C)c1ccc(C2CCC(c3ccccc3Cl)=N2)cc1 (stereo not drawn) [Example 20]
chromatographic logP [1]: 3.05

Fc1ccc(C2CCC(c3ccccc3Cl)=N2)cc1 (stereo not drawn) [Example 95]
chromatographic logP [1]: 2
chromatographic logP [2]: 3.68

COc1ccc(C2CCC(=O)N2C(=O)OC(C)(C)C)cc1F (stereo not drawn) [III-7]
chromatographic logP [1]: 2.43

COc1ccc(C2CCC(=O)N2C(=O)OC(C)(C)C)cc1 (stereo not drawn) [III-8]
chromatographic logP [1]: 2.43

FC(F)(F)Oc1ccc(-c2ccc(C3CCC(c4ccc(Cl)cc4Cl)=N3)cc2)cc1 (stereo not drawn) [Example 8]
chromatographic logP [1]: 5.69

CC(C)(C)OC(=O)N1C(=O)C(C(=O)c2ccc(Cl)c(Cl)c2)CC1c1ccccc1 (stereo not drawn) [II-6]
chromatographic logP [2]: 4.6

Cc1ccc(C2CCC(=O)N2)cc1 (stereo not drawn) [Example V-14]
chromatographic logP [1]: 1.52

CSc1ccc(C2CCC(c3ccccc3F)=N2)cc1 (stereo not drawn) [Example 85]
chromatographic logP [1]: 1.62
chromatographic logP [2]: 3.88

O=C1CCC(c2ccc(-c3ccc(OCc4ccc(Cl)cc4)cc3)cc2)N1 (stereo not drawn) [Example V-22]
chromatographic logP [1]: 3.62

COc1ccc(C2=NC(c3ccc(-c4ccc(OC(F)(F)F)cc4)cc3)CC2)cc1 (stereo not drawn) [Example 116]
chromatographic logP [1]: 2.94

CC(C)(C)c1ccc(C2CCC(c3ccccc3Br)=N2)cc1 (stereo not drawn) [Example 26]
chromatographic logP [1]: 3.36
chromatographic logP [2]: 5.21

Oc1ccc(C2CCC(c3c(F)cccc3F)=N2)cc1 (stereo not drawn) [Example 106]
chromatographic logP [1]: 0.91

Fc1ccc(C2CCC(c3cc(Cl)ccc3Cl)=N2)cc1 (stereo not drawn) [Example 51]
chromatographic logP [1]: 3.79
chromatographic logP [2]: 4.36

CCOc1cc(C(C)(C)C)ccc1C1CCC(=O)N1C(=O)OC(C)(C)C (stereo not drawn) [III-28]
chromatographic logP [1]: 4.4

Fc1ccc(C2CCC(c3ccc(OC(F)(F)F)cc3)=N2)cc1 (stereo not drawn) [Example 65]
chromatographic logP [1]: 2.23
chromatographic logP [2]: 4.31

Clc1ccc(C2=NC(c3ccccc3)CC2)cc1Cl (stereo not drawn) [Example 44]
chromatographic logP [1]: 2.68
chromatographic logP [2]: 4.59

Source: US7250521B2, “Method for production of Δ1-pyrrolines” (Bayer CropScience Aktiengesellschaft, priority 2001, dated 2007)
